Measured values reported in the SangsterLogP compilation.

Assay: method code SF, from DOI: 10.1016/j.ejps.2012.10.019, PMID: 23131797
Details: pH 2.0
With `CC(=O)c1sc(SCCOc2ccccc2)nc1C` the logD was 3.86.

Same assay, conditions: pH 5.0
With `COC(=O)c1cc(C(=O)OCC(=O)c2[nH]c(C)c(C(C)=O)c2C)cc([N+](=O)[O-])c1` the logD was 3.82.
Compound `CCc1ccc(OCC(=O)NCCc2ccc(OC)c(OC)c2)cc1` has a logD of 4.22.
Work on `Cc1ccc(-n2c(=O)c3cc4c(=O)n(-c5ccc(C)c(C)c5)c(=O)c4cc3c2=O)cc1C` yielded a logD of 4.83.
For `C=CCn1c(C)c(C=C2C(=O)OC3(CCCCC3)OC2=O)c2ccccc21`, the logD was 4.62.
`COC(=O)c1ccc(C)c(NC(=O)Cc2coc3cc4c(cc23)CCC4)c1` showed a logD of 4.78.
Work on `Cc1ccc(SCC(=O)NCc2cccc(CNC(=O)CSc3ccc(C)cc3)c2)cc1` yielded a logD of 5.08.
For `CCOC(=O)N1CCN(C(=O)/C=C/c2ccc(Cl)c(Cl)c2)CC1`, the logD was 4.34.
`O=C(NC1CCCC1)C1c2ccccc2Oc2ccccc21` showed a logD of 3.95.
Compound `CC(=O)NCCc1ccc(S(=O)(=O)N2CCOCC2)cc1` has a logD of 2.
Work on `FC(F)(F)c1ccc(-n2cc3ccccc3n2)cc1` yielded a logD of 4.42.
`COc1cc(C(=O)c2ccc(F)cc2)cc(C(=O)c2ccc(F)cc2)c1` showed a logD of 4.89.
`CC1=CC(C(F)(F)F)(C(F)(F)F)C(C#N)=C(N)N1c1ccc(C(N)=O)cc1` gave a logD of 4.41.
With `O=C(c1c(F)cccc1F)N1CCCC1` the logD was 1.88.
Compound `CC(C)NC(=S)N1CCN(S(=O)(=O)c2cccc(C(F)(F)F)c2)CC1` has a logD of 3.9.
`CCOc1nc(C#N)nc(N2CCOCC2)n1` gave a logD of 2.46.
Compound `CCn1ccc(CN(C)C(=O)c2ccccc2COc2ccc(F)cc2F)n1` has a logD of 4.43.
In the case of `Cc1c(OCc2ccccc2)cccc1[N+](=O)[O-]`, the logD is reported as 4.41.
For `Cn1ncc(Cl)c1-c1nc(-c2nonc2N)no1`, the logD was 2.77.
In the case of `COc1ccc(N2C(=O)Cc3ccccc3C2=O)cc1`, the logD is reported as 2.56.
Work on `CCOC(=O)C1=C(Nc2ccc(OC(=O)Nc3ccc(OC(F)(F)F)cc3)cc2)C(=O)N(C(C)(C)C)C1` yielded a logD of 6.72.
With `Cc1ccc(NC(=O)c2ccc(S(=O)(=O)N3CCOCC3)cc2)c(C(=O)c2ccccc2)c1` the logD was 4.54.
Compound `COc1ccc(OCC(=O)N2CCN(C(=O)c3ccco3)CC2)cc1` has a logD of 2.76.
With `CN(Cc1ccccc1)S(=O)(=O)c1ccc(NC(=O)Cc2ccc(F)cc2)cc1` the logD was 5.14.
With `CC(C)OCCCNC(=O)C(=O)NCc1ccc(C(C)C)cc1` the logD was 4.57.
In the case of `CCOC(=O)c1c(C)[nH]c(C)c1C(=O)COC(=O)c1ccc(F)c(S(=O)(=O)N2CCOCC2)c1`, the logD is reported as 3.63.
`C#Cc1cccc(NC(=O)c2cc(C(=O)Nc3cccc(C#C)c3)cc(N3C(=O)c4ccccc4C3=O)c2)c1` gave a logD of 6.85.
In the case of `O=C(Nc1ccccc1C(F)(F)F)C1CCC1`, the logD is reported as 2.55.
`CCn1cc(-c2nc3c4c(C)c(C)sc4ncn3n2)cn1` gave a logD of 3.77.
Work on `CCOc1ccccc1OCC(=O)Nc1ccc2ccccc2c1` yielded a logD of 4.73.
`C=CCOC(=O)COc1ccc2c(=O)c(-c3ccc(Cl)cc3)c(C)oc2c1` gave a logD of 4.84.
`CCc1c(C#N)c(SCC(=O)N2CCc3cc(OC)c(OC)cc3C2)nc2c1C(=O)CC(C)(C)C2` showed a logD of 4.89.
`COc1ccc(S(=O)(=O)n2c(=O)n(S(=O)(=O)c3ccc(OC)cc3)c3ccccc32)cc1` showed a logD of 5.22.
Work on `COc1cccc2c1N(C(=O)CC(C)C)C(C)(C)c1ssc(=S)c1-2` yielded a logD of 5.09.
`CN(C)S(=O)(=O)c1ccc(C(=O)OC2CCCCC2)cc1` gave a logD of 4.27.
`COC(=O)C1=C(C)NC(C)=C(C(=O)OC)C1c1cn(-c2ccccc2)nc1-c1cccc([N+](=O)[O-])c1` gave a logD of 5.04.
`COC(=O)c1ccc(OC(=O)c2cc(OC)cc(OC)c2)cc1` showed a logD of 4.64.
`N#CCc1nc(-c2ccc3c(c2)OCCO3)cs1` showed a logD of 2.92.
`N#CCc1nc(-c2ccc3c(c2)OCCCO3)cs1` showed a logD of 2.68.
With `c1ccc(-n2nnnc2OCCOc2nnnn2-c2ccccc2)cc1` the logD was 3.72.
In the case of `CC(=O)Nc1cccc(C(=O)OCC(=O)c2c(N)n(C)c(=O)n(C)c2=O)c1`, the logD is reported as 3.57.
Compound `O=C(CSc1nc2ccccc2s1)c1cccs1` has a logD of 4.04.
`CSc1scc(-c2cccs2)c1C#N` gave a logD of 3.69.
For `COc1cccc(OCCn2c(=O)c3cc4c(=O)n(CCOc5cccc(OC)c5)c(=O)c4cc3c2=O)c1`, the logD was 5.43.
In the case of `COc1c(Cl)ccc(Cl)c1C(=O)Nc1ccc(C)cc1C`, the logD is reported as 4.

Same assay, conditions: pH 6.5
In the case of `Cc1c(C)c(C)c(CSc2nnc(CC#N)n2C)c(C)c1C`, the logD is reported as 4.14.
Compound `O=C(CSc1nc2ccccc2c(=O)n1-c1ccc(Cl)cc1)NC1CCCCC1` has a logD of 4.92.
Compound `O=C(CSc1nnc2c3ccccc3n(Cc3ccccc3)c2n1)OCN1C(=O)c2ccccc2C1=O` has a logD of 4.51.
In the case of `CCCn1c(SCc2cc(=O)n3cc(Br)ccc3n2)nnc1-c1cccc(C)c1`, the logD is reported as 4.43.
For `N#CC(=Cc1ccc2c(c1)OCO2)C(=O)NCc1cccc(CNC(=O)C(C#N)=Cc2ccc3c(c2)OCO3)c1`, the logD was 4.92.
Work on `O=C(CC1Nc2ccccc2NC1=O)Nc1ccccc1NC(=O)CC1Nc2ccccc2NC1=O` (stereo not given) yielded a logD of 3.42.

Same assay, conditions: pH 7.0
With `Cc1ccc(C(=O)N2C(=O)c3cccc(N)c3C2=O)cc1NC(=O)c1ccco1` the logD was 3.55.

Same assay, conditions: pH 7.3
Compound `CCc1ccccc1Nc1nc(N)nc(CSc2nnc(-c3ccc(OC(F)F)cc3)n2N)n1` has a logD of 4.35.
In the case of `Cc1nc(-c2ccc(Cl)cc2)cs1`, the logD is reported as 3.65.
Work on `O=C(Nc1cccc(-c2cnc3ccccc3n2)c1)c1cccs1` yielded a logD of 4.34.
For `CC1CCCC(C)N1C(=O)CSc1nnc(-c2ccco2)n1Cc1ccccc1` (stereo not given), the logD was 4.49.
For `n1onc2c1NC1Nc3nonc3NC1N2` (stereo not given), the logD was 0.3.
For `CC(C)N(C(=O)CSc1nnc(NCc2ccccc2)s1)C(C)C`, the logD was 4.09.
Compound `CCOC(=O)C1CCN(S(=O)(=O)c2nc3nc(C)cc(C)n3n2)CC1` has a logD of 2.71.
In the case of `Cn1c(SCc2cc(F)cc(F)c2)nnc1-c1ccc2nonc2c1`, the logD is reported as 3.68.
With `C=CCn1c(SCC(=O)NCc2ccc(C(=O)OCC)cc2)nc2sc(C)c(C)c2c1=O` the logD was 4.83.
In the case of `O=C(c1nn(-c2ccccc2)c(=O)c2ccccc12)N1CCOCC1`, the logD is reported as 2.47.
With `CC(C)CCn1c(NCCO)nc2c1c(=O)n(C)c(=O)n2C` the logD was 2.93.

Same assay, conditions: pH 10.0
With `COc1ccc(C(=O)Cn2c(N3CCCCCC3)nc3c2c(=O)n(C)c(=O)n3C)cc1` the logD was 4.42.
For `Cc1cc(C)c(NC(=O)CSc2nnc(-c3ccc(OC(F)F)cc3)n2N)c(C)c1`, the logD was 4.41.
`Cc1ccc2c(C)nc(Nc3nc4c(c(=O)[nH]3)CCCC4)nc2c1` gave a logD of 3.92.
For `Cc1cc(C(F)(F)F)n2nc(-c3nnc(-c4cccc(C(F)(F)F)c4)o3)cc2n1`, the logD was 4.92.
`CN(C)S(=O)(=O)c1cccc(C(=O)NCCc2ccc(Cl)cc2Cl)c1` showed a logD of 4.48.
Compound `CCCSc1nc2c(c(=O)n1-c1ccc(Br)cc1)SCC2` has a logD of 4.61.

Same assay, conditions: pH 10.5
For `Cc1ccccc1N1C(=O)c2ccc(C(=O)OCC(=O)c3c(N)n(C)c(=O)n(C)c3=O)cc2C1=O`, the logD was 4.55.
Work on `Cc1nc2c(N)nnc(N)c2nc1C` yielded a logD of 1.14.
Compound `C=CCNC(=O)CSc1nnc(CCn2nc(C)c(Br)c2C)n1CC` has a logD of 3.53.
For `Cc1cc(C)n2nc(SCC(=O)NCCNC(=O)CSc3nc4nc(C)cc(C)n4n3)nc2n1`, the logD was 0.82.
For `CCOc1ccc(NC(=O)CN(C)C(=O)c2ccc(C)o2)cc1OCC`, the logD was 2.09.
In the case of `Cc1c(C(=O)N2CCN(S(=O)(=O)c3ccccc3)CC2)sc2nc3n(c(=O)c12)CCCCC3`, the logD is reported as 4.13.
`Cc1ccc(-n2c(C)cc(=O)cc2C)cc1C` gave a logD of 2.95.
Work on `COCCCNC(=O)c1cc(Br)c(C)c(C)c1C` yielded a logD of 2.93.
With `Nc1nc(SCC(=O)N(CCO)CCO)nc2sc3c(c12)CCCC3` the logD was 3.2.
In the case of `Cc1nnc2c(=O)n(CCNc3ncc(C(F)(F)F)cc3Cl)c3ccc(Cl)cc3n12`, the logD is reported as 4.57.
Compound `CC(=O)Oc1cc(C(=O)Nc2ccc(Oc3ccccc3)cc2)cc(OC(C)=O)c1OC(C)=O` has a logD of 2.89.
